# According to US7005298B1, “Micropropagation and production of phytopharmaceutical plants” (priority 1999, dated 2006):
# Marks after values point to notes of the source that are not given here.
# What was measured:
# [1] = tested on: St. John's wort plantlets; experiment: Lithium accumulation and growth of St. John's wort plantlets on lithium-supplemented liquid basal medium; assay type: in vivo, Hypericum perforatum
# Protocol: St. John's wort seedlings were obtained from sterilized seeds germinated in a controlled environment. St. John's wort seeds were sterilized by immersing in a 70% ethanol solution for 5 s, followed by an immersion in a 30% solution of 5.4% sodium hypochlorite (Lilo Products, Hamilton, Ontario) in water with one drop of Tween 20 per 500 mL for 20 min, and a three times rinse in sterile distilled water. Sterile seeds were germinated and maintained on water agar (8 g·L^−1) for 16 days in darkness in a growth cabinet at 24° C. Individual seedlings were cultured in Magenta boxes on a medium containing MS medium (Murashige and Skoog, 1962), B5 vitamins (Gamborg et al 1968), 30 g·L^−1 sucrose and 3 g·L^−1 gellan gum (Gelrite, Schweitzerhall Inc., South Plainfield, N.J., USA). Seedling cultures were incubated in a growth cabinet with a 16 hour photoperiod under cool white light at 40–60 μmol·m^−2·s^−1. After 30 days, seedlings were excised from the Magenta boxes and subcultured into 125 mL flasks containing 25 mL of a basal medium containing MS medium (Murashige and Skoog, 1962), B5 vitamins (Gamborg et al 1968) and 30 g·L^−1 sucrose. […]
# In a second series of experiments, the lithium accumulation of regenerated St. John's wort shoots was determined. […]
# Samples were harvested from the cultures analysed for lithium with the same protocol as described above.
# livestock growth = details: animal feeds supplemented with 3000 ppm inorganic zinc; cited from earlier work
# Echinacea plantlets = experiment: Zinc uptake and growth of Echinacea plantlets on zinc-supplemented liquid basal medium; assay type: in vivo, Echinacea purpurea
# Protocol: Germinating seedlings were cultured onto MS medium (Murashige & Skoog, 1962) with B5 vitamins (Gamborg et al 1968), 30 g·L^−1 sucrose and 3 g·L^−1 gelrite in Magenta boxes and incubated in a controlled environment chamber for 30 days with a 16 hour photoperiod under cool white light at 40–60 μmol·m^−2·s^−1. Mature seedlings were subcultured into 125 mL flasks containing 25 mL of basal medium supplemented with zinc at 0, 50, 100, 150 or 200 mg·L^−1 and incubated in the same chamber for 30 days (liquid baslal medium, Table 1).
# In experiments designed to determine the zinc uptake in micropropagated Echinacea plantlets, petiole explants, 2 cm in length were excised from the 4 week old sterile Echinacea plants and subcultured onto induction medium comprising MS media supplemented with thidiazuron (TDZ) (0.5, 1, 5 and 10 μmol·L^−1) or BAP (1, 2.5, 5, 7.5, 10, 12.5 and 15 μmol·L^−1) alone or in combination with indoleacetic acid (IAA) at concentrations of 5 and 10 μmol·L^−1. […] Regeneration was quantified after 25 and 33 days for all petiole cultures and roots after 33 and 42 days of culture. […]
# Plants were harvested on day 45 after treatments were initiated. […] Fresh weight of individual plantlets was determined prior to air drying at 90° C. for 48 hours. […] The zinc content of the samples was determined using an AA55 Varian Atomic Absorption Spectrophotometer or by ICP Analysis. […]
# [2] = tested on: uptake of serotonin, dopamine, noradrenaline, GABA and L-glutamate; details: animal cell cultures; cited from earlier work
# [3] = tested on: Echinacea purpurea petiole explants; experiment: Regeneration of Echinacea purpurea petiole explants on induction medium (BAP, TDZ, IAA); assay type: cell-based; details: for Number of regenerants/petiole: after 33 days of culture
# Protocol: The design of all experiments was a complete randomized block and treatments consisted of five replications. All the experiments were repeated at least twice and the data were analyzed using SAS Version 6.12 (SAS Inc., 1995). Significant differences between means were assessed by a Student-Neuman-Keulls means separation test at P≦0.05.
# Germinating seedlings were cultured onto MS medium (Murashige & Skoog, 1962) with B5 vitamins (Gamborg et al 1968), 30 g·L^−1 sucrose and 3 g·L^−1 gelrite in Magenta boxes. Petiole explants, 2 cm in length were excised from 4 week old sterile Echinacea purpurea plants and cultured onto induction medium comprising MS media supplemented with thidiazuron (TDZ) (0.5, 1, 5 and 10 μmol·L^−1) or BAP (1, 2.5, 5, 7.5, 10, 12.5 and 15 μmol·L^−1). TDZ was added to the media at concentrations of 0.5 and 1.0 μmmol·L^−1 in combination with indole acetic acid (IAA, an auxin) at concentrations of 5 and 10 μmol·L^−1. Explants cultured on media containing TDZ and IAA were subcultured onto MS basal media after 23 days while those cultured on media containing higher concentrations of TDZ were subcultured onto MS basal media after 4 and 8 days. All treatments consisted of 10 plates per treatment and 6 explants per plate. Treatments were incubated in a growth cabinet with a 16 hour photoperiod under cool white light at 40–60 μmol·m^−2·s^−1. Regeneration was quantified after 25 and 33 days for all petiole cultures and roots after 33 and 42 days of culture. The resulting regenerants were excised from petioles and subcultured onto MS basal media in test tubes for germination after 32 days of culture.
compound,measurement,setting,value
[Li] [lithium],appearance of plantlets,[1]; all treatment levels (0–200 mg·L^−1 lithium),appeared healthy
same,growth rate,"[1]; lithium supplementation of the culture medium, all treatment levels",unaffected
[Zn] [zinc],muscle and protein accretion and rate of growth,livestock growth,more rapid muscle and protein accretion and an overall acceleration in the rate of growth
same,appearance of plants,"Echinacea plantlets; 50, 100 and 150 mg·L^−1 zinc treatment groups",appeared normal and healthy
same,plantlet growth,Echinacea plantlets; higher concentrations of zinc in the medium (above 150 mg·L^−1),some inhibition of growth was observed
hyperforin,"uptake of serotonin, dopamine, noradrenaline, GABA and L-glutamate",[2],inhibition of uptake
"c1ccc(CNc2ncnc3[nH]cnc23)cc1 [BAP, benzylaminopurine]",Number of regenerants/petiole,[3]; BAP 1 μmol·L^−1,5.4^ab
same,Number of regenerants/petiole,[3]; BAP 2.5 μmol·L^−1,8.1^a
same,Number of regenerants/petiole,[3]; BAP 5 μmol·L^−1,6.6^ab
same,Number of regenerants/petiole,[3]; BAP 7.5 μmol·L^−1,5.2^ab
same,Number of regenerants/petiole,[3]; BAP 10 μmol·L^−1,3.9^b
same,Number of regenerants/petiole,[3]; BAP 12.5 μmol·L^−1,5.2^ab
same,Number of regenerants/petiole,[3]; BAP 15 μmol·L^−1,5.5^ab
same,de novo shoot formation,"[3]; BAP as the sole growth regulating compound, all concentrations",induced de nova shoot formation at all concentrations
same,callus formation and elongation of the petioles,[3]; culture medium supplemented with BAP,induce callus formation and elongation of the petioles
